The subject of this experiment is BHK-21 DENV2 CPE protection, ATP luminescence, 5 d. The experiment in a line: Dengue virus 2 cytopathic effect protection, dose response, BHK-21 cells, ATP luminescence, cherry-pick (AID 687031). Background: Cytopathic effects are the visible damage that an infection or toxin causes in cultured cells.
`Cc1cc(C)cc(NC(=O)Cn2nnc(C(=O)NCc3cccs3)c2N)c1`: the AC30 was 13.3 µM. The same measure for `Cc1ccccc1S(=O)(=O)N1CC[C@@H]2[C@H](CO)Nc3ccc(-c4cccc(C#N)c4)cc3[C@@H]21`: 15.9 µM; for `COCCNC(=O)CCC1CCN(C/C=C/c2ccccc2OC)CC1`: 19.3 µM. Regarding `Cc1cccc([C@@H]2[C@@H]3C(=O)N(C)C(=O)[C@@H]3[C@@H]3C(=O)Nc4ccccc4C(=O)N23)c1`, the AC30 is 18.7 µM.

Regarding `CCOc1ccc2[nH]cc(S(=O)(=O)c3ccc(C)cc3)c(=O)c2c1`, the AC30 is 13 µM. The same measure for `Nc1ncccc1C(=O)OCC(=O)N1CCN(S(=O)(=O)c2ccc(Cl)cc2)CC1`: 19 µM; for `CSc1ccccc1OCc1cc(C(=O)N2CCc3[nH]cnc3C2c2ccccn2)no1` (centres undefined): 9.97 µM. Take `COc1ccc(C(N)c2csc(Nc3cc(Oc4ccccc4)ncn3)n2)cc1` (centres undefined): the AC30 was 17.4 µM.

For the molecule `CC(=O)N1CCN(C(=O)COC(=O)COc2c(C)cc(C)cc2C)CC1`, the AC30 is 11.7 µM. Then `Oc1cccc2nc3ccccc3nc12`, with 14.4 µM; and `COc1ccc(CN2CCNC(=O)C2CC(=O)NCC2CCOCC2)c(C)c1C` (centres undefined), with 15.7 µM.

`CN(C)CC(=O)Nc1ccc2c(c1)[C@@H]1C[C@@H](CC(=O)NC3CCCCC3)O[C@H](CO)[C@@H]1O2`: the AC30 is 8.06 µM.

As to `Cc1ccc(C(=O)NCC(=O)NCC(c2cccs2)N2CCOCC2)cc1C` (centres undefined), the AC30 is 14.8 µM. Regarding `CC(C)[C@H](NC(=O)N1C[C@H]2C[C@@H](C1)c1cccc(=O)n1C2)C(=O)Nc1ccccc1F`, the AC30 was 16.2 µM. The same measure for `O=C1[C@@H](Oc2ccccc2)[C@@H](c2ccncc2)N1c1ccccc1`: 14.2 µM; for `COc1cccc(-c2ccc(C3[C@@H]4CN(S(=O)(=O)c5cn(C)cn5)C[C@H]3N4)cc2)c1` (some centres undefined): 7.87 µM. For `COC(=O)[C@@H]1[C@@H](CO)[C@@H]2Cn3c(ccc(C4=CCCC4)c3=O)[C@H]1N2Cc1ccccn1`, the AC30 is 17.2 µM. The same measure for `CCCNC(=O)C[C@H]1CC[C@@H]2[C@H](COC[C@@H](O)CN2C(=O)c2ccccn2)O1`: 17.3 µM. For the molecule `CC1CCCN(C(=O)c2ccc(S(=O)(=O)Nc3ccccc3Cl)cc2)C1` (centres undefined), the AC30 was 13.5 µM.

On to `CCOC(=O)N1CCN(C(C(=O)NC2CCCC2)C(C)C)CC1` (centres undefined), for which the AC30 is 9.37 µM. Then `FC(F)(F)c1cccnc1Oc1ccc(C2=NCCS2)cc1`, with 8.01 µM; and `CCNS(=O)(=O)c1ccc(Br)c(C(=O)OC(C)C(=O)NCC2CCCCC2)c1` (centres undefined), with 2.25 µM. The same measure for `OC(CSc1nnnn1-c1ccccc1)Cn1c2ccccc2c2ccccc21` (centres undefined): 18.8 µM; for `C[C@H](CO)N1C[C@H](C)[C@H](CN(C)C(=O)Nc2ccc(-c3ccccc3)cc2)OCc2ccccc2-c2c(n(C)c3ccccc23)C1=O`: 17.7 µM. The same measure for `Cc1cc(F)cc(-c2cc(C(=O)NCC3CCCCC3)[nH]n2)c1`: 10 µM.

`CS(=O)(=O)N1C[C@@H]2N[C@H](C1)[C@@H]2c1ccc(-c2ccccc2)cc1`: the AC30 was 5.51 µM. Regarding `CCc1c(C2(O)CCCCC2)[nH]c2c(C(=O)OC)cc(Cl)cc12`, the AC30 is 12.3 µM. Then `CCN(CC(=O)NCC(=O)Nc1cccc(C)c1C)Cc1ccccc1`, with 19.3 µM. The same measure for `O=C(C1CCOCC1)N1C[C@H]2[C@@H](c3ccccc31)[C@@H](CO)N2C(=O)c1ccccc1`: 18.8 µM; for `CC1CCN(CCOc2ccc(OCc3ccccc3)cc2)CC1`: 11.3 µM. Then `CC1CCN(C(=O)COC(=O)CNC(=O)c2ccccc2F)CC1`, with 19.4 µM; and `c1ccc(C2CC2)c(OCC2=NCCN2)c1`, with 9.54 µM; and `CC1CCCC(NC(=O)COC(=O)c2ccccc2Sc2ccccc2C#N)C1C` (centres undefined), with 12.7 µM. `NC(=O)c1ccsc1NC(=O)COC(=O)[C@@H]1CCCN1C(=O)c1cccs1`: the AC30 is 11 µM. Consider `O=C(O)C1C2C=CC(C2)C1C(=O)NCc1ccccc1` (centres undefined), for which the AC30 was 15.5 µM.

In the case of `Cc1cc(F)ccc1C(O)c1ncc(-c2ccccc2C(F)(F)F)[nH]1` (centres undefined), the AC30 was 18.4 µM.

`Cc1cc(OC(C)C(=O)NC2CC(C)(C)NC(C)(C)C2)c2c(C)c(C)c(=O)oc2c1` (centres undefined): the AC30 was 2.89 µM. The same measure for `CCC[C@@H]1CCCO[C@@](C(=O)NCc2ccccn2)(C(F)(F)F)C1`: 10 µM; for `Cn1cnc(S(=O)(=O)N[C@@H]2C=C[C@H](CC(=O)N3CCN(c4ccccc4)CC3)O[C@@H]2CO)c1`: 17 µM. The same measure for `C[C@H](NC(=O)CCCOc1ccc(Cl)cc1Cl)c1nnc2ccccn12`: 16.2 µM.

As to `C[C@H](NC(=O)[C@H]1N[C@H]2c3ccc(-c4cccnc4)c(=O)n3C[C@H]2[C@@H]1CO)c1ccccc1`, the AC30 was 12.5 µM. Take `Cc1noc(C)c1NC(=O)Nc1ccc2c(c1)C(=O)N([C@@H](C)CO)C[C@@H](C)[C@@H](CN(C)S(C)(=O)=O)OCCCC[C@@H](C)O2`: the AC30 is 18.6 µM. For `O=S(=O)(c1ccc2c(c1)OCCO2)N1CCCN(S(=O)(=O)c2c(F)cccc2F)CC1`, the AC30 is 17.5 µM.

`COC(=O)[C@H]1CN(C(=O)c2ccccc2)C(=O)N1`: the AC30 is 5.13 µM. For `O=C(c1ccccc1)N1CC[C@@H]2[C@H](CO)Nc3ccc(C#Cc4cccc(F)c4)cc3[C@@H]21`, the AC30 was 3.21 µM. Consider `CCN(CC)CC(=O)N1CCCC(N2CCN(c3cccc(C(F)(F)F)c3)CC2)C1` (centres undefined), for which the AC30 was 19.1 µM. `COC(=O)N1CCCCC1c1cc(C(=O)Nc2ccc(OC)cc2C)no1` (centres undefined): the AC30 was 13 µM. Then `Cc1c(C(=O)OC(C)C)sc(N)c1C(=O)OC(C)C`, with 18.6 µM; and `C[C@@H]1CCCCO[C@H](CN(C)S(=O)(=O)c2ccccc2)[C@@H](C)CN([C@@H](C)CO)C(=O)c2cc(NC(=O)c3ccncc3)ccc2O1`, with 17.6 µM.

Values taken from PubChem BioAssay AID687031 (Broad Institute, 2013).
